From US6828347B2, “Anti-viral multi-quinone compounds and regiospecific synthesis thereof” (Illinois Institute of Technology, priority 2002, dated 2004)

What was measured:
uninfected CEM-T4 cells = assay: Toxicity to uninfected CEM-T4 cells (MTT assay); type: cell-based; settings: day 8, MTT
Description: The assays desirably measure the concentration of the multi-quinone that allows for 50% survival of CEM-T4 cells infected with HIV-1 and the concentration of multi-quinone that kills 50% of uninfected CEM-T4 cells. One skilled in the art will appreciate that other known assays or tests for determining antiviral activity may be used.
The chlorohydroxybiquinone was tested for anti-HIV activity by the CEM-T4 cytoprotection assay which measures the inhibition of viral cytopathogenic effects. CEM-T4 cells used for the assay were maintained in RPMI-1640 culture medium containing 2 millimoles L-glutamine and 25 millimoles HEPES, and supplemented with 10% fetal bovine serum, 50 units/milliliter of penicillin G, and 50 microgram/milliliter streptomycin sulfate. The antiviral assays were performed in 96-well tissue culture plates. Cells were treated with polybrene at a concentration of 2 microgram/milliliter, and 1×10^4 cells were dispensed into each well. Appropriate concentrations of the biquinone were prepared in sterile DMSO and diluted with culture medium to the desired concentrations. Each dilution of test compound was added to multiple wells of cells, and the cells were incubated at 37° C. for one hour. Cells were then infected at a multiplicity of infection of 0.025 TCID50/cell by the addition of a diluted stock of the HTLV-IIIB strain of HIV-1. […]
Assay plates were incubated at 37° C. in a humidified 5% carbon dioxide (CO2) atmosphere and examined microscopically for toxicity and/or cytopathogenic effect. Once the viral cytopathogenic effect was maximal (the eighth day post-infection), the surviving cells in each test well were quantified using the MTT assay known in the art and described in Pauwels et al., “Rapid and Automated Tetrazolium-based Colorimetric Assay for the Detection of Anti-HIV Compounds,” J. Virol. […] When a dose-dependent effect for either anti-HIV activity or cytotoxicity was observed, values for the 50% effective dose were calculated using the dose-effect analysis software of Chou and Chou, available from Elsevier-Biosoft.

[1] = system: retroviruses such as an HIV; settings: as disclosed in the Boyd et al. Patents; cited from earlier work

## COC1=C(C2=C(C3=C(O)C(=O)c4ccccc4C3=O)C(=O)c3ccccc3C2=O)C(=O)c2ccc3c(c2C1=O)C=CC(C)(C)O3 [trimeric quinone, 3-Hydroxy-3′-(9-methoxy-3,3-dimethyl-7,10-dioxo-7,10-dihydro-3H-benzo[f]chromen-8-yl)-2,2′-binaphthalenyl-1,4,1′,4′-tetraone]
Uninfected CEM-T4 cells
  TD50 (concentration to cause reduction of cell growth by 50% of uninfected controls): 17 µM

## CC(C)=CCC[C@]1(C)C=Cc2c(ccc3c2C(=O)C(O)=C(C2=C(Cl)C(=O)c4ccccc4C2=O)C3=O)O1 [chlorohydroxybiquinone, 8-(3-Chloro-1,4-dioxo-1,4-dihydronapthalen-2-yl)-9-hydroxy-3-methyl-3-(4-methyl-pent-3-enyl)-3H-benzo[f]chromene-7,10-dione]
Uninfected CEM-T4 cells
  TD50 (concentration to cause reduction of cell growth by 50% of uninfected controls): 2.7 µM

## COC1=C(C2=C(Cl)C(=O)c3ccccc3C2=O)C(=O)c2ccc3c(c2C1=O)C=C[C@@](C)(CCC=C(C)C)O3 [chloromethoxybiquinone, 8-(3-Chloro-1,4-dioxo-1,4-dihydro-napthalen-2-yl)-9-methoxy-3-methyl-3-(4-methyl-pent-3-enyl)-3H-benzo[f]chromene-7,10-dione]
Uninfected CEM-T4 cells
  TD50 (concentration to cause reduction of cell growth by 50% of uninfected controls): 5.4 µM

## CC(C)=CCC[C@]1(C)C=Cc2c(ccc3c2C(=O)C(O)=C(C2=C(C4=C(O)C(=O)c5c(ccc6c5C=C[C@@](C)(CCC=C(C)C)O6)C4=O)C(=O)c4c(ccc5c4C=C[C@@](C)(CCC=C(C)C)O5)C2=O)C3=O)O1 [conocurvone]
[1]
  antiviral activity (growth and replication of viruses): inhibit the growth and replication of viruses
